± gives the expanded uncertainty stated by the source.
Conditions: 298.44 K, Pendant drop shape

## O [water]
  surface tension liquid-gas: 71.9 ± 0.6 mN/m

— the NIST ThermoML archive (doi:10.1016/j.jct.2015.08.006)
